The values below come from PMC9822036, “Virtual Screening, Synthesis, and Biological Evaluation of Some Carbohydrazide Derivatives as Potential DPP-IV Inhibitors” (Molecules, 2022).

The inhibition is the change of the read-out against control, counted positive when it falls. As a reminder, the IC50 is the concentration that gives 50% inhibition. A high value points to weaker potency.

The target of series [1] is T1, DPP-IV enzyme (Homo sapiens, UniProt P27487).
T1 construct: purchased Cayman Chemical (only as the URL of the kit insert) 700210
T1 sequence (P27487 whole entry): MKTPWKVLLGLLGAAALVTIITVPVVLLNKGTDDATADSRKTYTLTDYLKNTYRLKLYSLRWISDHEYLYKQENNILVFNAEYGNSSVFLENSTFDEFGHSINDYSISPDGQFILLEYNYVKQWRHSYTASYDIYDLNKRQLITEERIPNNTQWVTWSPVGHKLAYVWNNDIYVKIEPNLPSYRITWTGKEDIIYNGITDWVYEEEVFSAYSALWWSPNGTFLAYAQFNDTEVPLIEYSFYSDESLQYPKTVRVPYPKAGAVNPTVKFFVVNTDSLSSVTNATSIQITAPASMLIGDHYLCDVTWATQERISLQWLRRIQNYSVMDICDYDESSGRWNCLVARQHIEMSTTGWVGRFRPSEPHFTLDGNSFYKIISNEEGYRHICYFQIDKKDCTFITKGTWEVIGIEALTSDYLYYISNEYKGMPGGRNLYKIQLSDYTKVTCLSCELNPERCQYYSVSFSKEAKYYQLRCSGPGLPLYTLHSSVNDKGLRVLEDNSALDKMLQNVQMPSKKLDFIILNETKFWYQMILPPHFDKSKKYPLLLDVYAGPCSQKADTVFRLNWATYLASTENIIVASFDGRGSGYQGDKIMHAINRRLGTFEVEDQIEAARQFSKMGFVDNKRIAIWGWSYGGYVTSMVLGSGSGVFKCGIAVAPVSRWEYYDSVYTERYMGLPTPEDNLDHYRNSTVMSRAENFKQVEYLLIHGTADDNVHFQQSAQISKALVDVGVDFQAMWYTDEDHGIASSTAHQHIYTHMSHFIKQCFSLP
Nature of the series: In vitro DPP-IV enzymatic assay. It is filed as biochemical. The following applies: means of three independent determinations. The source says: The prepared compounds were investigated in vitro for their ability to inhibit the DPP-IV enzyme, and the detailed method is already described in our previously published paper.

Series [2] relates to STZ-induced diabetic rats. Nature of the series: In vivo antidiabetic activity, STZ-induced T2DM model, fasting blood glucose. On the set-up: species or system Wistar rats. The following applies: compounds 50 mg/kg, sitagliptin 10 mg/kg, daily for 21 days, six rats. The source says:
The antihyperglycemic potential of certain compounds was investigated in Wistar rats. STZ-induced diabetic rats were employed for the antihyperglycemic testing. The animal experiments were approved by the Institutional Animal Ethics Committee (IAEC) in New Delhi, India (Protocol Number: IAEC/MCP/009/2020). During the research period, the Committee for the Purpose of Control and Supervision of Experiments on Animals (CPCSEA) and IAEC criteria for animal care were followed.
Rats were given a high-fat diet after one week of acclimation. Diabetes was induced in the animals as per the method each described in [25]. Rats were then divided into six groups with six animals. Group I served as normal control with normal rats receiving the vehicle only. Group II served as diabetes control in which rats received the vehicle only. […] Groups IV, V, and VI served as test groups and received compounds 1b, 5b, and 4c, respectively, at doses of 50 mg/kg b.w. The diabetic rats were given the tested compound suspended in 0.5% w/v CMC every day for 21 days. On days 1, 7, 14, and 21, blood samples were taken from the tail veins of each animal that had fasted overnight. A glucometer was used to measure blood glucose levels.

The subject of series [3] is rats. Nature of the series: Acute toxicity studies (OECD guideline 423). The format is in vivo. The following applies: oral, 500 mg/kg body weight, monitored for 72 h. Here is the method: Acute toxicity studies were performed as per the OECD guideline 423. For compounds 1b, 4c, and 5b, three groups of six rats weighing 80–120 g were starved overnight and given the test compounds orally at doses of 200, 500, 1000, and 2000 mg/kg body weight. The animals were monitored for 72 h, for symptoms of acute toxicity, such as increased or reduced motor activity, tremors, convulsions, and drowsiness, among others. […] As a result, the OECD-recommended dosage for assessing the antidiabetic action was set at 50 mg/kg (i.e., […]).

Series [4] concerns ob/ob mice. The following applies: 10 mg/kg p.o., cited from earlier work.

In series [1], `CC1=C(C(=O)N/N=C/c2ccccc2)C(c2ccc(Cl)cc2Cl)NC(=O)N1` (stereo not shown) [Compound 3a, (E)-N-Benzylidene-4-(2,4-dichlorophenyl)-6-methyl-2-oxo-1,2,3,4-tetrahydropyrimidine-5-carbohydrazide] gave an inhibition at 50 µM of 61.25 ± 0.16% and a half-inhibitory concentration (IC50) of 33.91 ± 0.0029 µM.

Take `COc1ccccc1/C=N/NC(=O)C1=C(C)NC(=O)NC1c1ccccc1` (stereo not shown) [Compound 1c, (E)-N-(2-Methoxybenzylidene)-6-methyl-2-oxo-4-phenyl-1,2,3,4-tetrahydropyrimidine-5-carbohydrazide]: in series [1], the inhibition at 50 µM came to 56.47 ± 0.37% and the concentration for half-maximal inhibition (IC50) turned out to be 39.72 ± 0.0027 µM.

Regarding `CC1=C(C(=O)N/N=C/c2ccccc2)C(c2ccccc2Cl)NC(=O)N1` (stereo not shown) [Compound 2a, (E)-N-Benzylidene-4-(2-chlorophenyl)-6-methyl-2-oxo-1,2,3,4-tetrahydropyrimidin-5-carbohydrazide], in series [1], the inhibition at 50 µM turned out to be 61.25 ± 0.16% and it took 32.41 ± 0.0033 µM to reach half-maximal inhibition (IC50).

In series [1], `COc1ccccc1/C=N/NC(=O)C1=C(C)NC(=O)NC1c1ccc(F)cc1F` (stereo not shown) [Compound 5c] displayed an inhibition at 50 µM of 58.54 ± 0.27% and an IC50 of 37.63 ± 0.0026 µM.

As to `CC1=C(C(=O)N/N=C/c2ccccc2O)C(c2ccc(F)cc2F)NC(=O)N1` (stereo not shown) [Compound 5b, (E)--4-(2,4-Difluorophenyl)-N-(2-hydroxybenzyldene)-6-methyl-2-oxo-1,2,3,4-tetrahydropyrimidine-5-carbohydrazide], in series [2], the “Fasting Blood Glucose ± SEM, On Day 1” value was 253.83 ± 4.49 mg/dL; the “Fasting Blood Glucose ± SEM, On Day 7” value is given as 182.00 ± 8.11 mg/dL; the “Fasting Blood Glucose ± SEM, On Day 14” value was determined as 167.16 ± 6.23 mg/dL; the “Fasting Blood Glucose ± SEM, On Day 21” value was 157.33 ± 5.75 mg/dL. Also, the “Fasting Blood Glucose ± SEM, On Day 21” value in series [2] (listed as Compound 5b) came to 157.33 ± 5.75 mg/dL. In series [1], this compound registered an inhibition at 50 µM of 70.7 ± 0.37% and an IC50 of 28.13 ± 0.0029 µM. Moreover, the “Acute toxicity, mortality” value in series [3] is listed as “more than half of the animals died”.

In series [1], `COc1ccc(/C=N/NC(=O)C2=C(C)NC(=O)NC2c2ccccc2)cc1` (stereo not shown) [Compound 1d, (E)-N-(4-Methoxybenzylidene)-6-methyl-2-oxo-4-phenyl-1,2,3,4-tetrahydropyrimidine-5-carbohydrazide] showed an inhibition at 50 µM of 57.74 ± 0.38% and an IC50 of 38.26 ± 0.005 µM.

For `CC1=C(C(=O)N/N=C/c2ccccc2)C(c2ccc(F)cc2F)NC(=O)N1` (stereo not shown) [Compound 5a, (E)-N-Benzylidene-4-(2,4-difluorophenyl)-6-methyl-2-oxo-1,2,3,4-tetrahydropyrimidine-5-carbohydrazide], in series [1], the inhibition at 50 µM is 44.2 ± 0.28% and the IC50 is 65.31 ± 0.0021 µM.

In series [1], `CC1=C(C(=O)N/N=C/c2ccccc2O)C(c2ccccc2F)NC(=O)N1` (stereo not shown) [Compound 4b, (E)--4-(2-Fluorophenyl)-N-(2-hydroxybenzyldene)-6-methyl-2-oxo-1,2,3,4-tetrahydropyrimidine-5-carbohydrazide] came in with an inhibition at 50 µM of 63.8 ± 0.16% and an IC50 of 31.75 ± 0.0027 µM.

As for `COc1ccccc1/C=N/NC(=O)C1=C(C)NC(=O)NC1c1ccccc1F` (stereo not shown) [Compound 4c, (E)--4-(2-Fluorophenyl)-N-(2-methoxybenzyldene)-6-methyl-2-oxo-1,2,3,4-tetrahydropyrimidine-5-carbohydrazide], in series [2], the “Fasting Blood Glucose ± SEM, On Day 1” value is 264.66 ± 5.70 mg/dL; the “Fasting Blood Glucose ± SEM, On Day 7” value is reported as 237.16 ± 9.01 mg/dL; the “Fasting Blood Glucose ± SEM, On Day 14” value amounted to 194.83 ± 4.81 mg/dL; the “Fasting Blood Glucose ± SEM, On Day 21” value came to 169.66 ± 8.53 mg/dL. In series [1], this compound displayed an inhibition at 50 µM of 60.4 ± 0.08% and a half-maximal inhibitory concentration (IC50) of 34.94 ± 0.0016 µM. Besides, in series [3], the “Acute toxicity, mortality” value was “more than half of the animals died”.

On to `COc1ccccc1/C=N/NC(=O)C1=C(C)NC(=O)NC1c1ccccc1Cl` (stereo not shown) [Compound 2c, (E)-4-(2-Chlorophenyl)-N-(2-methoxybenzylidene)-6-methyl-2-oxo-1,2,3,4-tetrahydropyrimidine-5-carbohydrazide], for which, in series [1], 50 µM produced 63.25 ± 0.05% inhibition and the IC50 was determined as 33.97 ± 0.0025 µM.

In series [1], `CC1=C(C(=O)N/N=C/c2ccccc2O)C(c2ccc(Cl)cc2Cl)NC(=O)N1` (stereo not shown) [Compound 3b, (E)--4-(2,4-Dichlorophenyl)-N-(2-hydroxybenzyldene)-6-methyl-2-oxo-1,2,3,4-tetrahydropyrimidine-5-carbohydrazide] had an inhibition at 50 µM of 61 ± 0.08% and a half-maximal inhibitory concentration (IC50) of 33.79 ± 0.0021 µM.

In series [1], `CC1=C(C(=O)N/N=C/c2ccccc2)C(c2ccccc2)NC(=O)N1` (stereo not shown) [Compound 1a, (E)-N-Benzylidene-6-methyl-2-oxo-4-phenyl-1,2,3,4-tetrahydropyrimidine-5-carbohydrazide] showed an inhibition at 50 µM of 40.74 ± 0.38% and a half-maximal inhibitory concentration (IC50) of 58.95 ± 0.0012 µM.

For the compound `COc1ccc(/C=N/NC(=O)C2=C(C)NC(=O)NC2c2ccccc2F)cc1` (stereo not shown) [Compound 4d, (E)--4-(2-Fluorophenyl)-N-(4-methoxybenzyldene)-6-methyl-2-oxo-1,2,3,4-tetrahydropyrimidine-5-carbohydrazide], in series [1], the inhibition at 50 µM amounted to 57.74 ± 0.38% and the half-inhibitory concentration (IC50) was found to be 38.62 ± 0.0025 µM.

Regarding `CC1=C(C(=O)N/N=C/c2ccccc2)C(c2ccccc2F)NC(=O)N1` (stereo not shown) [Compound 4a], in series [1], the inhibition at 50 µM was determined as 64.78 ± 0.33% and the IC50 was found to be 30.47 ± 0.0025 µM.

As to `CC1=C(C(=O)N/N=C/c2ccccc2O)C(c2ccccc2)NC(=O)N1` (stereo not shown) [Compound 1b, (E)-N-(2-Hydroxybenzylidene)-6-methyl-2-oxo-4-phenyl-1,2,3,4-tetrahydropyrimidine-5-carbohydrazide], in series [2], the “Fasting Blood Glucose ± SEM, On Day 1” value is 261.00 ± 8.44 mg/dL; the “Fasting Blood Glucose ± SEM, On Day 7” value was found to be 215.03 ± 3.29 mg/dL; the “Fasting Blood Glucose ± SEM, On Day 14” value turned out to be 187.05 ± 6.48 mg/dL; the “Fasting Blood Glucose ± SEM, On Day 21” value was found to be 160.12 ± 6.18 mg/dL. In series [1], this compound came in with an inhibition at 50 µM of 42.69 ± 0.28% and a concentration for half-maximal inhibition (IC50) of 54.73 ± 0.0025 µM. Moreover, the “Acute toxicity, mortality” value in series [3] is reported as “more than half of the animals died”.

In series [1], `COc1ccc(/C=N/NC(=O)C2=C(C)NC(=O)NC2c2ccccc2Cl)cc1` (stereo not shown) [Compound 2d, (E)-4-(2-Chlorophenyl)-N-(4-methoxybenzylidene)-6-methyl-2-oxo-1,2,3,4-tetrahydropyrimidine-5-carbohydrazide] returned an inhibition at 50 µM of 64.78 ± 0.33% and an IC50 of 31.72 ± 0.0021 µM.

In series [1], `COc1ccccc1/C=N/NC(=O)C1=C(C)NC(=O)NC1c1ccc(Cl)cc1Cl` (stereo not shown) [Compound 3c] registered an inhibition at 50 µM of 61 ± 0.08% and an IC50 of 33.73 ± 0.0024 µM.

For the compound `N[C@@H](CC(=O)N1CCn2c(nnc2C(F)(F)F)C1)Cc1cc(F)c(F)cc1F` [Sitagliptin, reference compound], the Long-term inhibition in series [4] (after 8 h) is reported as > 70%. Also, the Glucose excursion in series [4] (at 8 h) is 35%. Besides, in series [2], the “Fasting Blood Glucose ± SEM, On Day 1” value stood at 240.16 ± 9.88 mg/dL; the “Fasting Blood Glucose ± SEM, On Day 7” value is given as 178.66 ± 6.92 mg/dL; the “Fasting Blood Glucose ± SEM, On Day 14” value is given as 175.16 ± 8.61 mg/dL; the “Fasting Blood Glucose ± SEM, On Day 21” value amounted to 133.50 ± 11.80 mg/dL.

Regarding `CC1=C(C(=O)N/N=C/c2ccccc2O)C(c2ccccc2Cl)NC(=O)N1` (stereo not shown) [Compound 2b, (E)-4-(2-Chlorophenyl)-N-(2-hydroxybenzylidene)-6-methyl-2-oxo-1,2,3,4-tetrahydropyrimidine-5-carbohydrazide], in series [1], 50 µM produced 65.5 ± 0.08% inhibition and the IC50 came out at 31.93 ± 0.0029 µM.
